This passage reports % of control results from ChEMBL document CHEMBL5465560, “Selectivity Literature for EUbOPEN Chemogenomic Library” (2024).

The target in assay [1] is T1, Ephrin type-B receptor 3 (Homo sapiens) (UniProt P54753).
T1 sequence (whole entry): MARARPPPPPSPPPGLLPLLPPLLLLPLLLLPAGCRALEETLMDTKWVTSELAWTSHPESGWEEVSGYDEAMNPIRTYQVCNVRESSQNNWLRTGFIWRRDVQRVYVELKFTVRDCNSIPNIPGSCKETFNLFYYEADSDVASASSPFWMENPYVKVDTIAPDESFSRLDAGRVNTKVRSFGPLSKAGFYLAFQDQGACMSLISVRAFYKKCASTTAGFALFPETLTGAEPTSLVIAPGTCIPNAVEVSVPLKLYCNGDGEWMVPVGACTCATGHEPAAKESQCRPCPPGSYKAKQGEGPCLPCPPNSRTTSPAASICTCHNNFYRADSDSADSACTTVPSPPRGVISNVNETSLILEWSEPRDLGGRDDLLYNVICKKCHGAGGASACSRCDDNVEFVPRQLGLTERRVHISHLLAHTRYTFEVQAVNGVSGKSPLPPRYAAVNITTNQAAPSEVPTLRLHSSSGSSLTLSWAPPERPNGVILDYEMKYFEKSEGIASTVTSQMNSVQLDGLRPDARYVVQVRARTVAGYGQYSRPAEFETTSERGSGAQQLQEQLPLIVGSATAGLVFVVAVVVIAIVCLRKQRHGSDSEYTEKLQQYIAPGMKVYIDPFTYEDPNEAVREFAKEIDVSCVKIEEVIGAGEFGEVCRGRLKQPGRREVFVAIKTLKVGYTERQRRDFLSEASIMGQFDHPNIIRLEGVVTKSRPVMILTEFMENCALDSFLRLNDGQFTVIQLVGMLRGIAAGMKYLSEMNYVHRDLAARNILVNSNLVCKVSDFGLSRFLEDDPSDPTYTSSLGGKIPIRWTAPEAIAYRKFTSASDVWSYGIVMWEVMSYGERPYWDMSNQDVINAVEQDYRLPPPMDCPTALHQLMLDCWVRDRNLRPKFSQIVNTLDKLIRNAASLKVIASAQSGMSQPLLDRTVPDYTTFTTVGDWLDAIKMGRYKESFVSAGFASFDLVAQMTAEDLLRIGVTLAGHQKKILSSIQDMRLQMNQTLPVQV
Description: Selectivity interaction (KinomeScan (DiscoverX)) EUB0001079a EPHB3. The conditions noted are these: at 1 µM.

For assay [2], the target named is Fibroblast growth factor receptor 4 (Homo sapiens, UniProt P22455). As to the kind of experiment: Selectivity interaction (KinomeScan (DiscoverX)) EUB0001049a FGFR4. To be noted: at 1 µM.
Sequence of Fibroblast growth factor receptor 4 (P22455 22-802 limits assumed): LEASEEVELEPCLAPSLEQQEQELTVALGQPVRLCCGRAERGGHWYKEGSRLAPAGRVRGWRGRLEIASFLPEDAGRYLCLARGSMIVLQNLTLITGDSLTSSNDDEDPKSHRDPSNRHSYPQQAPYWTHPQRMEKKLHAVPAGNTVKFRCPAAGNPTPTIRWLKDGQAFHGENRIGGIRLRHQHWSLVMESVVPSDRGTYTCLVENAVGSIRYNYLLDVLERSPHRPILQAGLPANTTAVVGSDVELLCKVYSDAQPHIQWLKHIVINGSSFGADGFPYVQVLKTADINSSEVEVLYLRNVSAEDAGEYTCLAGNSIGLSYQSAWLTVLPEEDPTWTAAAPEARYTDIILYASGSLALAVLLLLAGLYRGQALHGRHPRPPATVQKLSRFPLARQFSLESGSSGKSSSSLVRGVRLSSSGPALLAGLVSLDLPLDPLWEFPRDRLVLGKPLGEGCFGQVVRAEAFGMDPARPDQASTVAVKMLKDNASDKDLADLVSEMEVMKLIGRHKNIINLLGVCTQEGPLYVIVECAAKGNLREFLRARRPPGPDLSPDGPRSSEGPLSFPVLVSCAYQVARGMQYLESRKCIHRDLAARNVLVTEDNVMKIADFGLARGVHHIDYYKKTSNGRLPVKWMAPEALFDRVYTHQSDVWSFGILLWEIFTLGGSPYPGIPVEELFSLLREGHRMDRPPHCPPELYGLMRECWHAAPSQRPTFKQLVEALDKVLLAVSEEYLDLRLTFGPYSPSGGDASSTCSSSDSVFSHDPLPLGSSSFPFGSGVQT
For assay [3], the target named is T2, Testis-specific serine/threonine-protein kinase 1 (Homo sapiens) (UniProt Q9BXA7).
T2 sequence (whole entry): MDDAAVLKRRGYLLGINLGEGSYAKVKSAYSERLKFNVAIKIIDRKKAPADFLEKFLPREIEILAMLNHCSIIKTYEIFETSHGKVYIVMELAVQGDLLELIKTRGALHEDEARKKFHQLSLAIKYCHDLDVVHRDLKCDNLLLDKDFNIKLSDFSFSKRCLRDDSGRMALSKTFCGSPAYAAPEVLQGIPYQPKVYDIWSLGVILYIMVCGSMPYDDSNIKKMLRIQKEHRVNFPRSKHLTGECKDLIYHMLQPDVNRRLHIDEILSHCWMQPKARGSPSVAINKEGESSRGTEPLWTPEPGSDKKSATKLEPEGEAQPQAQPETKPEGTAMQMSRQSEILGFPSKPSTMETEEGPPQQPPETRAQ
As to the kind of experiment: Selectivity interaction (KinomeScan (DiscoverX)) EUB0000618a TSSK1A. The conditions noted are these: at 10 µM.

Assay [4] concerns the target T3, Mitogen-activated protein kinase kinase kinase 3 (Homo sapiens) (UniProt Q99759).
T3 sequence (whole entry): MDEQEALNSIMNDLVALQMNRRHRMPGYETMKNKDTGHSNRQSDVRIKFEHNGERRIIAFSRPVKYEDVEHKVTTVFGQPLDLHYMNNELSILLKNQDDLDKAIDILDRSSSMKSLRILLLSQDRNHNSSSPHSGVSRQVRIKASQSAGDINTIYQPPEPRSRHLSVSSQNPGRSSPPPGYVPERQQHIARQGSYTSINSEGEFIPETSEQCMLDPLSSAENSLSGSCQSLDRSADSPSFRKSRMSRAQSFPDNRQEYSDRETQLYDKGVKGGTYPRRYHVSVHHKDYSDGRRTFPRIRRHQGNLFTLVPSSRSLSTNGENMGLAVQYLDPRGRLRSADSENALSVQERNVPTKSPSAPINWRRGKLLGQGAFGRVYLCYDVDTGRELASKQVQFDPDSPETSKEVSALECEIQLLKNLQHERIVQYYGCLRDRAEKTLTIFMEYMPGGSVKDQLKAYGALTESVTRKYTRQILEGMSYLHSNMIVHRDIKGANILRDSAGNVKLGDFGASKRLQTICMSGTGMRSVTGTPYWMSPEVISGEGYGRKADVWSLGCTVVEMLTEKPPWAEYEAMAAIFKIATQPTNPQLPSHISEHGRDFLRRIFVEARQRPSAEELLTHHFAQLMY
As to the kind of experiment: Selectivity interaction (KinomeScan (DiscoverX)) EUB0000595a MAP3K3. The conditions noted are these: at 10 µM.

Molecules are shown by their SMILES.

Take `Nc1cnc(N2CCc3cc(S(=O)(=O)Nc4c(F)cc(Cl)cc4F)cc(N4CCCC4=O)c32)nc1` [TP-020n]: in assay [1], the % of control is 100%.
Take `COc1cc(Nc2nc(C)cc(-c3cnn4nc(OC)ccc34)n2)cc(C(F)(F)F)c1`: the % of control in assay [2] stood at 100%.
Molecule `O[C@H]1CC[C@H](Nc2ncc3nc(Nc4c(F)cc(F)cc4F)n([C@H]4CCOC4)c3n2)CC1` yielded a % of control in assay [3] of 100%.
As for `COCC(=O)NC/C=C/c1ccc2ncnc(Nc3ccc(Oc4ccc(C)nc4)c(C)c3)c2c1` [CP-724714], the % of control in assay [4] was 100%.
